According to patent US12611372B2, “Strain and use thereof” (LG HOUSEHOLD & HEALTH CARE LTD., priority 2021, dated 2026):

Legend:
[1] = biological target: T1, TRPV1 (transient receptor potential vanilloid-1) (Homo sapiens, UniProt Q8NER1); assay: TRPV1 activity, calcium influx detection assay in HEK 293T-TRPV1 cells; type: cell-based; settings: untreated group 83.57
T1 construct: expressed in transfected cells; host or cells: HEK 293T-TRPV1 cells

[2] = DPPH free radical scavenging; type: biochemical; settings: 0.15 mM DPPH, room temperature, 30 minutes, absorbance at 540 nm
loricrin (LOR) = assay: Loricrin (LOR) gene expression in TNF-a-treated HaCaT cells, qPCR; type: cell-based, human; settings: Control: TNF-a 10 pg/mL alone; untreated group = 1
Protocol: After treating HaCaT cells with TNF-a (10 pg/mL) for 3 hours, samples were diluted for each concentration, mixed with TNF-a-treated HaCaT cells, and cultured for 24 hours. The degree of increase in the expression of loricrin (LOR), a major component of the skin barrier, was quantified using qPCR (Table 18).

human dermal fibroblast = assay: Collagen synthesis rate, Procollagen Type I C-peptide (PIP) EIA kit; type: cell-based; settings: positive control, 48 hours
Protocol: Samples were treated with human dermal fibroblast for 48 hours at each concentration. The collagen synthesis rate was measured using a Procollagen Type I C-peptide (PIP) EIA kit. The collagen synthesis efficacy of the samples was calculated and measured as values in comparison with the negative control group (DMEM containing 0% serum).
In order to confirm the collagen synthesis enhancement effect of the Saccharomyces cerevisiae KCTC14779BP fermented product, the collagen synthesis rate was compared for normal cells, and normal cells treated with TGF-β, Saccharomyces cerevisiae KCTC14779BP fermented product, and normal yeast (Saccharomyces cerevisiae KCTC7296) fermented product (Table 3).
The confirmation of collagen synthesis enhancement effect was performed in the same manner as in Example 3-1, and the collagen synthesis rate was compared for normal cells, and normal cells treated with TGF-β, Saccharomyces cerevisiae KCTC14780BP fermented product, and fraction containing the yeast polypeptide (Table 4).
The confirmation of collagen synthesis enhancement effect was performed in the same manner as in Example 3-1, and the collagen synthesis rate was compared for normal cells, and normal cells treated with TGF-β, Lactobacillus fructivorans KCTC14776BP fermented product, and normal Lactobacillus (Lactobacillus plantarum KCTC3108) fermented product (Table 5).
The confirmation of collagen synthesis enhancement effect was performed in the same manner as in Example 3-1, and the collagen synthesis rate was compared for normal cells, and normal cells treated with TGF-β, Bacillus paramycoides KCTC14777BP fermented product, and normal Bacillus (Bacillus megaterium KCTC3007) fermented product (Table 6).

Raw 264.7 cells = assay: NO production inhibitory ability, LPS-treated cells, NO assay kit; type: cell-based; settings: positive control, 20 μg/mL, LPS 1 μg/mL, 24 hours
Protocol: Raw 264.7 cells were diluted for each concentration, treated with 1 μg/mL of LPS, and cultured for 24 hours. The NO production inhibitory ability was evaluated as follows using a NO assay kit (Table 13).
The confirmation of skin soothing and inflammation improvement effects was performed in the same manner as in Example 6-1 (Table 14).

B16f10 melanocytes = assay: Melanin production inhibition; type: cell-based; settings: treatment concentration 0.02%; 72 hours
Protocol: Samples were diluted in B16f10 melanocytes at each concentration, treated for 72 hours, and cultured, and then, the amount of melanin pigment present in melanocytes was quantified. The melanin production inhibitory rate was calculated in comparison to the total protein amount, and the values thereof were measured as percentage (%) based on the DMSO control (DMEM containing 0% serum) set to 100%.
In order to measure the degree of decrease in the amount of melanin pigment in the Saccharomyces cerevisiae KCTC14780BP fermented product and the fraction containing the yeast polypeptide, the inhibition rate of melanin production was compared upon treatment with the positive control group (Arbutin 200 ppm (Lim Y. J. et al., 2009, Arch Pharm Res.)), the Saccharomyces cerevisiae KCTC14780BP fermented product and the fraction containing the yeast polypeptide (Table 15).

human keratinocyte HaCaT = assay: Hyaluronic acid synthesis, Quantikine ELISA Hyaluronan; type: cell-based; settings: positive control, 1 ppm, 72 hours
Protocol: Samples were treated with human keratinocyte HaCaT for 72 hours at each concentration. Hyaluronic acid synthesis was compared with the control group (DMEM treatment containing 0% serum) using Quantikine ELISA Hyaluronan from R&D Systems to quantify the moisturizing ability (Table 7).
The confirmation of hyaluronic acid synthesis enhancement effect was performed in the same manner as in Example 4-1 (Table 8).
The confirmation of hyaluronic acid synthesis enhancement effect was performed in the same manner as in Example 4-1 (Table 9).
The confirmation of hyaluronic acid synthesis enhancement effect was performed in the same manner as in Example 4-1 (Table 10).
The confirmation of hyaluronic acid synthesis enhancement effect was performed in the same manner as in Example 4-1 (Table 11).

T1 sequence (Q8NER1 whole entry, species assumed): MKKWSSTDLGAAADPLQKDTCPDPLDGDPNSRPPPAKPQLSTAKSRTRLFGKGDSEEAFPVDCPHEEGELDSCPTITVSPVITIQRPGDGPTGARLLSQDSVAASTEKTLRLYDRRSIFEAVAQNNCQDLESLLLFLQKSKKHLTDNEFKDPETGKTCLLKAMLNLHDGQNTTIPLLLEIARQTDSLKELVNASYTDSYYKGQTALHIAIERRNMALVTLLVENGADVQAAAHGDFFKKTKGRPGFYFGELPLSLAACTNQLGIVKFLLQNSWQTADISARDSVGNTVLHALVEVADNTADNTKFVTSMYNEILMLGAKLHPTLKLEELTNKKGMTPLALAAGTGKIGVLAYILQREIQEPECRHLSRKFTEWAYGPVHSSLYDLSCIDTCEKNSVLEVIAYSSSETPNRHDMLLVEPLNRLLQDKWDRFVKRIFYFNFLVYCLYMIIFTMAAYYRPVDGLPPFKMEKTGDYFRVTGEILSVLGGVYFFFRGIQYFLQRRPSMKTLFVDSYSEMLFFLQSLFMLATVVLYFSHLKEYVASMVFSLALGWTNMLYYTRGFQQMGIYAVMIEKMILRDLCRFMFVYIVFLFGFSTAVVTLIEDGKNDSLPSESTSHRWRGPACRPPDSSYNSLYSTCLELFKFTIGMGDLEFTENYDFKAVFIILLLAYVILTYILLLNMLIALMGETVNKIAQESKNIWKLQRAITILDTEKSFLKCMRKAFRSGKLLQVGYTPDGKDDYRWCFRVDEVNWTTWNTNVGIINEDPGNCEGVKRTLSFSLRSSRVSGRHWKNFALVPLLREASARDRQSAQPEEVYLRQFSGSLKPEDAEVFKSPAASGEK

In the case of `COc1cc(CNC(=O)CCCC/C=C/C(C)C)ccc1O` [Capsaicin], the “TRPV1 Activity (RFU, relative fluorescent unit)” value ([1]; 10 μM, TRPV1 activity induction) is reported as 101.86 RFU.
With `O=C1O[C@H]([C@@H](O)CO)C(O)=C1O` [Vitamin C] the “IC 50 (%)” value [2] was 0.000606 ± 0.00006%.
With TNF-a the “LOR Gene Expression (Relative mRNA level, of control)” value (loricrin (LOR)) was 0.39.
In the case of TGF-β, the “Collagen Synthesis Rate (% of control)” value (human dermal fibroblast; Table 3, 10 ppb, vs negative control (DMEM 0% serum)) is reported as 27.55 % of control, the “Collagen Synthesis Rate (% of control)” value (human dermal fibroblast; Table 4, 10 ng/mL) is reported as 23.92 % of control and the “Collagen Synthesis Rate (% of control)” value (human dermal fibroblast; Table 5, 10 ppb) is reported as 24.6 % of control. The “Collagen Synthesis Rate (% of control)” value (human dermal fibroblast; Table 6, 10 ppb) was 20.84 % of control.
For `CNC(=N)NCCC[C@H](N)C(=O)O` [L-NMMA], the “NO production inhibitory ability (% of control)” value (Raw 264.7 cells; Table 13) was 47.9 % of control and the “NO production inhibitory ability (% of control)” value (Raw 264.7 cells; Table 14) was 47.9 % of control.
In the case of Capsazepin, the “TRPV1 Activity (RFU, relative fluorescent unit)” value ([1]; 3 μM, TRPV1 activity inhibition) is reported as 75.91 RFU.
In the case of `OC[C@H]1O[C@@H](Oc2ccc(O)cc2)[C@H](O)[C@@H](O)[C@@H]1O` [Arbutin], the “Melanin Production Inhibition (%)” value (B16f10 melanocytes) is reported as 56.4%.
In the case of `CC1=C(/C=C/C(C)=C/C=C/C(C)=C/C(=O)O)C(C)(C)CCC1` [Retinoic acid], the “Hyaluronic Acid Synthesis Rate (% of control)” value (human keratinocyte HaCaT; Table 7) is reported as 13.6 % of control, the “Hyaluronic Acid Synthesis Rate (% of control)” value (human keratinocyte HaCaT; Table 8) is reported as 17.8 % of control and the “Hyaluronic Acid Synthesis Rate (% of control)” value (human keratinocyte HaCaT; Table 9) is reported as 27.6 % of control. For the same molecule, the “Hyaluronic Acid Synthesis Rate (% of control)” value (human keratinocyte HaCaT; Table 10) was 22.0 % of control and the “Hyaluronic Acid Synthesis Rate (% of control)” value (human keratinocyte HaCaT; Table 11) was 15.4 % of control.
